In patent US20090069319A1, “IMIDAZOPYRIDINE ANALOGS AND THEIR USE AS AGONISTS OF THE WNT-BETA-CATENIN CELLULAR MESSAGING SYSTEM” (Wyeth, priority 2007, published 2009):

assay: Functional Dkk1-LRP5-TCF-Luciferase Assay in U2OS Cells (table columns: A=MAX FOLD Induction/DMSO CONTROL; B=fold induction @ 2.0 uM; C=fold induction @ 20.0 uM); type: cell-based, Human; settings: Homo sapiens, U2OS; 2.0 uM compound
Experimental: Biological Evaluation—Functional Dkk1-LRP5-TCF-Luciferase Assay in U2OS Cells
U2OS Human Bone derived cells (Osteosarcoma) are grown in McCoy's 5A Medium (Modified), with L-glutamine (GIBCO Cat No. 16600-082)+1% Pen-Strep+5% FBS) plated at 1×10^7 cells/T175 cm flask. The next day, the cells are co-transfected overnight with the following plasmids: (a) Test reporter (16×TCF-TK-FireFly-Luci), (b) Internal Control Reporter (TK-Renilla-Luci), (c) Wnt3a and (d) Dkk1. GIBCO's Lipofectamine 2000 and OptiMEM were used for the transfection. After a minimum of 4 hr of transfection at 37° C., the plasmid-transfected cells are trypsinized, counted, and suspended in freezing medium (95% FBS+5% DMSO). The reporter cells are frozen at 1×10^7/ml concentrations, aliquoted into 0.5 ml or 2.5 ml/tube and stored at −70° C.
The following day, test compounds are added under HTS setup by Plate Track into 384 well plates (white, TC treated, Falcon plate) such that the final concentration of the compounds in 20 μL/well cell will be 5 μg/ml (final concentration of DMSO=0.25% and final compound concentration=20 μM). Vials of frozen reporter cells are thawed by warming the vial in a 37° C. water bath for 60-120 seconds with some shaking until the cells formed a suspension. The thawed cells are transferred into a cold 50 ml (or larger) tube and mixed well by gentle pipetting. The appropriate amount of cold Phenol Red Free RPMI medium-1640 (GIBCO, Cat # 11835-030) with L-glutamine is added, both with ˜5% FBS (GIBCO-BRL, Cat. # 16000-044), so that 20 μl of the final cell suspension will contain ˜5,000 cells. The cell dilution is done such that the final concentration of FBS was ˜5%. Diluted cells (20 μl) are added into each well in a 384 well plate. The plate is incubated at 37° C. under 5% CO2 for ˜20 h. Bright-Glo substrate, 2.5 μl/well is added, and the Fire Fly Luciferase is measured using VLUX (60 second exposure) immediately after the substrate was added. Test compounds are dissolved in DMSO (100%) and added to specified wells. Raw luciferase signal data obtained as relative luminescence units (RLUs) for the test compounds are normalized to the signal of the mean of the sample reporter cell plate with DMSO.
Active compounds have TCF-luciferase ratios of 2.5 fold or greater over DMSO. All compounds show a signal increase of at least 10% compared to a signal with only DMSO added.
A=MAX FOLD Induction/DMSO CONTROL
B=TCF ACTIVITY/DMSO CONTROL Fold induction @ 2.0 uM C=TCF ACTIVITY/DMSO CONTROL Fold induction @ 20.0 uM

Row | Structure (SMILES) | fold induction at 2 µM
1 | Cn1c(=O)n(C2CCN(S(C)(=O)=O)CC2)c2nccc(-c3ccc4ccccc4c3)c21 [1-methyl-3-[1-(methylsulfonyl)piperidin-4-yl]-7-(2-naphthyl)-1,3-dihydro-2H-imidazo[4,5-b]pyridin-2-one] | 1.52
2 | Cn1c(=O)n(C2CCN(C(=O)N3CCOCC3)CC2)c2nccc(-c3ccc4ccccc4c3)c21 [1-methyl-3-[1-(morpholin-4-ylcarbonyl)piperidin-4-yl]-7-(2-naphthyl)-1,3-dihydro-2H-imidazo[4,5-b]pyridin-2-one] | 1.29
3 | Cn1c(=O)n(C2CCNCC2)c2nccc(-c3ccc4ccccc4c3)c21 [1-methyl-7-(2-naphthyl)-3-piperidin-4-yl-1,3-dihydro-2H-imidazo[4,5-b]pyridin-2-one] | 1.07
4 | c1ccc2cc(-c3cnc4c(c3)nc(-c3ccc5ccccc5c3)n4C3CCNCC3)ccc2c1 [2,6-di-2-naphthyl-3-piperidin-4-yl-3H-imidazo[4,5-b]pyridine] | 1.06
5 | c1ccc2cc(-c3ccnc4c3nc(-c3ccc5ccccc5c3)n4C3CCNCC3)ccc2c1 [2,7-di-2-naphthyl-3-piperidin-4-yl-3H-imidazo[4,5-b]pyridine] | 1.02
6 | c1ccc2cc(-c3ccnc4c3nc(-c3ccc5c(c3)OCO5)n4C3CCNCC3)ccc2c1 [2-(1,3-benzodioxol-5-yl)-7-(2-naphthyl)-3-piperidin-4-yl-3H-imidazo[4,5-b]pyridine] | 1.36
7 | CC(=O)n1cc(-c2nc3c(-c4ccc5ccccc5c4)ccnc3n2C2CCNCC2)c2ccccc21 [2-(1-acetyl-1H-indol-3-yl)-7-(2-naphthyl)-3-piperidin-4-yl-3H-imidazo[4,5-b]pyridine] | 1.48
8 | c1ccc2cc(-c3cnc4c(c3)nc(-c3cc5ccccc5o3)n4C3CCNCC3)ccc2c1 [2-(1-benzofuran-2-yl)-6-(2-naphthyl)-3-piperidin-4-yl-3H-imidazo[4,5-b]pyridine] | 1
9 | c1ccc2cc(-c3ccnc4c3nc(-c3cc5ccccc5o3)n4C3CCNCC3)ccc2c1 [2-(1-benzofuran-2-yl)-7-(2-naphthyl)-3-piperidin-4-yl-3H-imidazo[4,5-b]pyridine] | 1.53
10 | c1ccc2cc(-c3cnc4c(c3)nc(-c3ccc5occc5c3)n4C3CCNCC3)ccc2c1 [2-(1-benzofuran-5-yl)-6-(2-naphthyl)-3-piperidin-4-yl-3H-imidazo[4,5-b]pyridine] | 0.98
11 | c1ccc2cc(-c3ccnc4c3nc(-c3ccc5occc5c3)n4C3CCNCC3)ccc2c1 [2-(1-benzofuran-5-yl)-7-(2-naphthyl)-3-piperidin-4-yl-3H-imidazo[4,5-b]pyridine] | 0.9
12 | c1ccc2cc(-c3cnc4c(c3)nc(-c3cc5ccccc5s3)n4C3CCNCC3)ccc2c1 [2-(1-benzothien-2-yl)-6-(2-naphthyl)-3-piperidin-4-yl-3H-imidazo[4,5-b]pyridine] | 0.92
13 | c1ccc2cc(-c3ccnc4c3nc(-c3cc5ccccc5s3)n4C3CCNCC3)ccc2c1 [2-(1-benzothien-2-yl)-7-(2-naphthyl)-3-piperidin-4-yl-3H-imidazo[4,5-b]pyridine] | 1.02
14 | c1ccc2cc(-c3ccnc4c3nc(-c3csc5ccccc35)n4C3CCNCC3)ccc2c1 [2-(1-benzothien-3-yl)-7-(2-naphthyl)-3-piperidin-4-yl-3H-imidazo[4,5-b]pyridine] | 1.28
15 | CCn1cnc(-c2nc3c(-c4ccc5ccccc5c4)ccnc3n2C2CCNCC2)c1C [2-(1-ethyl-5-methyl-1H-imidazol-4-yl)-7-(2-naphthyl)-3-piperidin-4-yl-3H-imidazo[4,5-b]pyridine] | 1.88
16 | Cn1ccnc1-c1nc2c(-c3ccc4ccccc4c3)ccnc2n1C1CCNCC1 [2-(1-methyl-1H-imidazol-2-yl)-7-(2-naphthyl)-3-piperidin-4-yl-3H-imidazo[4,5-b]pyridine] | 1.84
17 | Cn1c(-c2nc3cc(-c4ccc5ccccc5c4)cnc3n2C2CCNCC2)cc2ccccc21 [2-(1-methyl-1H-indol-2-yl)-6-(2-naphthyl)-3-piperidin-4-yl-3H-imidazo[4,5-b]pyridine] | 1.05

Row | Structure (SMILES) | fold induction at 2 µM
18 | Cn1c(-c2nc3c(-c4ccc5ccccc5c4)ccnc3n2C2CCNCC2)cc2ccccc21 [2-(1-methyl-1H-indol-2-yl)-7-(2-naphthyl)-3-piperidin-4-yl-3H-imidazo[4,5-b]pyridine] | 1.17
19 | Cn1cc(-c2nc3cc(-c4ccc5ccccc5c4)cnc3n2C2CCNCC2)c2ccccc21 [2-(1-methyl-1H-indol-3-yl)-6-(2-naphthyl)-3-piperidin-4-yl-3H-imidazo[4,5-b]pyridine] | 1.04
20 | Cn1cc(-c2nc3c(-c4ccc5ccccc5c4)ccnc3n2C2CCNCC2)c2ccccc21 [2-(1-methyl-1H-indol-3-yl)-7-(2-naphthyl)-3-piperidin-4-yl-3H-imidazo[4,5-b]pyridine] | 1.23
21 | Cn1cccc1-c1nc2c(-c3ccc4ccccc4c3)ccnc2n1C1CCNCC1 [2-(1-methyl-1H-pyrrol-2-yl)-7-(2-naphthyl)-3-piperidin-4-yl-3H-imidazo[4,5-b]pyridine] | 1.52
22 | c1ccc2cc(-c3cnc4c(c3)nc(-c3cccc5ccccc35)n4C3CCNCC3)ccc2c1 [2-(1-naphthyl)-6-(2-naphthyl)-3-piperidin-4-yl-3H-imidazo[4,5-b]pyridine] | 1.11
23 | c1ccc2cc(-c3ccnc4c3nc(-c3cccc5ccccc35)n4C3CCNCC3)ccc2c1 [2-(1-naphthyl)-7-(2-naphthyl)-3-piperidin-4-yl-3H-imidazo[4,5-b]pyridine] | 1.39
24 | c1ccc2cc(-c3ccnc4c3nc(-c3ncc[nH]3)n4C3CCNCC3)ccc2c1 [2-(1H-imidazol-2-yl)-7-(2-naphthyl)-3-piperidin-4-yl-3H-imidazo[4,5-b]pyridine] | 1.42
25 | c1ccc2cc(-c3cnc4c(c3)nc(-c3c[nH]c5ccccc35)n4C3CCNCC3)ccc2c1 [2-(1H-indol-3-yl)-6-(2-naphthyl)-3-piperidin-4-yl-3H-imidazo[4,5-b]pyridine] | 1.11
26 | Fc1cccc(-c2nc3c(-c4ccc5ccccc5c4)ccnc3n2C2CCNCC2)c1F [2-(2,3-difluorophenyl)-7-(2-naphthyl)-3-piperidin-4-yl-3H-imidazo[4,5-b]pyridine] | 1.9
27 | c1ccc2cc(-c3ccnc4c3nc(-c3ccc5c(c3)OCCO5)n4C3CCNCC3)ccc2c1 [2-(2,3-dihydro-1,4-benzodioxin-6-yl)-7-(2-naphthyl)-3-piperidin-4-yl-3H-imidazo[4,5-b]pyridine] | 1.18
28 | Clc1ccc(-c2nc3cc(-c4ccc5ccccc5c4)cnc3n2C2CCNCC2)c(Cl)c1 [2-(2,4-dichlorophenyl)-6-(2-naphthyl)-3-piperidin-4-yl-3H-imidazo[4,5-b]pyridine] | 1.04
29 | Clc1ccc(-c2nc3c(-c4ccc5ccccc5c4)ccnc3n2C2CCNCC2)c(Cl)c1 [2-(2,4-dichlorophenyl)-7-(2-naphthyl)-3-piperidin-4-yl-3H-imidazo[4,5-b]pyridine] | 1.1
30 | Fc1ccc(-c2nc3cc(-c4ccc5ccccc5c4)cnc3n2C2CCNCC2)c(F)c1 [2-(2,4-difluorophenyl)-6-(2-naphthyl)-3-piperidin-4-yl-3H-imidazo[4,5-b]pyridine] | 1.22
31 | Fc1ccc(-c2nc3c(-c4ccc5ccccc5c4)ccnc3n2C2CCNCC2)c(F)c1 [2-(2,4-difluorophenyl)-7-(2-naphthyl)-3-piperidin-4-yl-3H-imidazo[4,5-b]pyridine] | 1.42
32 | Cc1ccc(-c2nc3cc(-c4ccc5ccccc5c4)cnc3n2C2CCNCC2)c(C)c1 [2-(2,4-dimethylphenyl)-6-(2-naphthyl)-3-piperidin-4-yl-3H-imidazo[4,5-b]pyridine] | 1.31
33 | Cc1ccc(-c2nc3c(-c4ccc5ccccc5c4)ccnc3n2C2CCNCC2)c(C)c1 [2-(2,4-dimethylphenyl)-7-(2-naphthyl)-3-piperidin-4-yl-3H-imidazo[4,5-b]pyridine] | 1.3
34 | Fc1cccc(F)c1-c1nc2c(-c3ccc4ccccc4c3)ccnc2n1C1CCNCC1 [2-(2,6-difluorophenyl)-7-(2-naphthyl)-3-piperidin-4-yl-3H-imidazo[4,5-b]pyridine] | 1.11

same assay, conditions: Homo sapiens, U2OS; 20.0 uM compound

Row | Structure (SMILES) | fold induction at 20 µM
35 | Cn1c(=O)n(C2CCN(S(C)(=O)=O)CC2)c2nccc(-c3ccc4ccccc4c3)c21 [1-methyl-3-[1-(methylsulfonyl)piperidin-4-yl]-7-(2-naphthyl)-1,3-dihydro-2H-imidazo[4,5-b]pyridin-2-one] | 0.97
36 | Cn1c(=O)n(C2CCN(C(=O)N3CCOCC3)CC2)c2nccc(-c3ccc4ccccc4c3)c21 [1-methyl-3-[1-(morpholin-4-ylcarbonyl)piperidin-4-yl]-7-(2-naphthyl)-1,3-dihydro-2H-imidazo[4,5-b]pyridin-2-one] | 0.21
37 | c1ccc2cc(-c3ccnc4c3nc(-c3cc5ccccc5o3)n4C3CCNCC3)ccc2c1 [2-(1-benzofuran-2-yl)-7-(2-naphthyl)-3-piperidin-4-yl-3H-imidazo[4,5-b]pyridine] | 0.01
38 | c1ccc2cc(-c3ccnc4c3nc(-c3ccc5occc5c3)n4C3CCNCC3)ccc2c1 [2-(1-benzofuran-5-yl)-7-(2-naphthyl)-3-piperidin-4-yl-3H-imidazo[4,5-b]pyridine] | 1.02
39 | Cn1cccc1-c1nc2c(-c3ccc4ccccc4c3)ccnc2n1C1CCNCC1 [2-(1-methyl-1H-pyrrol-2-yl)-7-(2-naphthyl)-3-piperidin-4-yl-3H-imidazo[4,5-b]pyridine] | 0.01
